# Data: EP4733303A1, “MUSCARINIC M4 RECEPTOR AGONIST AND USE THEREOF” (Haisco Pharmaceutical Group Co., Ltd., priority 2023, dated 2024)
# Biological target: T1, M4 receptor (Homo sapiens, UniProt P08173)
# T1 construct: expressed in transfected cells; host or cells: CHO (M4-CHO cells)
# T1 sequence (P08173 1-479): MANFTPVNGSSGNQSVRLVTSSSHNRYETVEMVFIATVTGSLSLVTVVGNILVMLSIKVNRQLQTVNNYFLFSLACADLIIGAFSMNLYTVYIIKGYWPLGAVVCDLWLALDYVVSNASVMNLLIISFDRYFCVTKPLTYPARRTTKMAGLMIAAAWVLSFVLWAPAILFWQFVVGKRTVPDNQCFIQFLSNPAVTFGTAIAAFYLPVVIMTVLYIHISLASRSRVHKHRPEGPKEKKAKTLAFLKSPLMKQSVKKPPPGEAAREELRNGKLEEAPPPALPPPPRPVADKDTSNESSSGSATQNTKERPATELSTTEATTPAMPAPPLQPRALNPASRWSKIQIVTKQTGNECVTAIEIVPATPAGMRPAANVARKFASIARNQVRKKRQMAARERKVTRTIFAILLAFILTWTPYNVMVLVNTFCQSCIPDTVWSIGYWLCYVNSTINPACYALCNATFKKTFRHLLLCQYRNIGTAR
# Experiment: PAM agonistic activity of compound on M4 receptor (FLIPR Calcium 6 assay in M4-CHO cells)
# Format: cell-based
# Conditions: with acetylcholine (Ach), final concentration 3 nM
# Procedure: • 1). Cell plating: M4-CHO cells were digested, collected, and resuspended. After cell counting, the cell suspension was seeded into a 384-well cell plate at a density of: 1.2 × 10^4 cells/25 µL/well. The cell plate was then cultured in a 37°C, 5% CO2 incubator for about 16-20 h. • 2). Day 2: Assay Buffer was prepared according to the instructions of the FLIPR Calcium 6 Assay Kit. Component A (20×) was thawed to room temperature and diluted with the Assay Buffer to prepare a loading buffer (1×), which was stored at room temperature until use. • 3). The culture medium was removed from the cell plate. 40 µL of the loading buffer (1×) was quickly added to each well. The cell plate was then centrifuged and incubated at 37°C in the dark for 120 min. • 4). Working solutions of the positive control compound and the test compounds were prepared. An acetylcholine (Ach) agonist compound solution was prepared (final concentration: 3 nM). The PAM compound and the Ach agonist solution were mixed at a 1 : 1 ratio, and the mixture was transferred into a 384-well compound source plate at 20 µL per well. • 5). The cell plate, the compound source plate, and the pipette tips were placed into the corresponding positions within the FLIPR instrument. 10 µL of the diluted compound from step 4 was added into each experimental well using the FLIPR Tetra. Data was collected at the wavelength of 515 nm-575 nm. • 6). The signal values were plotted against the compound concentrations. Nonlinear regression analysis was performed using GraphPad Prism software for curve fitting and EC50 calculation.
# The experimental results are shown in Table 1, where A represents EC50 < […]; B represents 100 nM ≤ EC50 < 500 nM, and C represents 500 nM ≤ EC50. Table 1. Agonistic activity of compounds on M4 receptor
row,Structure (SMILES),EC50 [nM]
1,Cc1ncn(-c2nc(C)c3c(n2)CN(C(=O)CC2CN(c4ccnc(OC5CC(F)(F)C5)c4)C2)C3)n1 [Compound 163],< 100
2,Cc1cc(C)c2c(n1)CN(C(=O)CC1CN(c3ccnc(-n4cnc(C)n4)c3)C1)C2 [Compound 54],< 100
3,Cc1cc(C)c2c(n1)CN(C(=O)CC1CN(c3ccnc(OC4CCC(F)(F)C4)c3)C1)C2 (stereo not drawn) [Compound 83],< 100
4,Cc1cc(C)c2c(n1)CN(C(=O)CC1CN(c3ccnc(-c4nc(C)nn4C)c3)C1)C2 [Compound 96],< 100
5,C=C1CC(Oc2cc(N3CC(CC(=O)N4Cc5c(C)cc(=O)n(C)c5C4)C3)ccn2)C1 [Compound 165],< 100
6,Cc1cc(C)c2c(n1)CN(C(=O)CC1CN(c3ccnc(-n4cc(C)nc4C)c3)C1)C2 [Compound 75],< 100
7,Cc1ccn(-c2cc(N3CC(CC(=O)N4Cc5nc6c(c(C)c5C4)CCC6)C3)ncn2)n1 [Compound 92],< 100
8,Cc1cc(-c2cnn(C)c2)nc2c1CN(C(=O)CC1CN(c3ccnc(C(F)(F)F)c3)C1)C2 [Compound 109],< 100
9,Cc1ccn(-c2cc(N3CC(CC(=O)N4Cc5c(C)c(F)c(=O)n(C)c5C4)C3)ccn2)n1 [Compound 209],< 100
10,Cc1nc(C#N)nc2c1CN(C(=O)CC1CN(c3ccnc(OC4CC(F)(F)C4)c3)C1)C2 [Compound 115],< 100
11,COc1nc(C)c2c(n1)CN(C(=O)CC1CN(c3ccnc(OC4CC(F)(F)C4)c3)C1)C2 [Compound 137],< 100
12,C=C1CC(Oc2cc(N3CC(CC(=O)N4Cc5nc(-c6cnn(C)c6)cc(C)c5C4)C3)ccn2)C1 [Compound 166],< 100
13,Cc1c2c(n(C(F)F)c(=O)c1F)CN(C(=O)CC1CN(c3ccnc(OC4CC(=C(F)F)C4)c3)C1)C2 (stereo not drawn) [Compound 201],< 100
14,Cc1cc(C)c2c(n1)CN(C(=O)CC1CN(c3ccnc(Cn4cc(C(F)(F)F)cn4)c3)C1)C2 [Compound 189],< 100
15,Cc1nc(-c2cnn(C(F)F)c2)nc2c1CN(C(=O)CC1CN(c3ccnc(C(F)(F)F)c3)C1)C2 [Compound 173],< 100
16,Cc1ccn(-c2cc(N3CC(CC(=O)N4Cc5nc(C)nc(N(C)C)c5C4)C3)ccn2)n1 [Compound 90],< 100
17,Cc1cc(C)c2c(n1)CN(C(=O)CC1CN(c3ccnc(-c4cc(C(F)(F)F)n(C)n4)c3)C1)C2 [Compound 14],< 100
18,Cc1nc(C#N)c2c(n1)CN(C(=O)CC1CN(c3ccnc(OC4CC(F)(F)C4)c3)C1)C2 [Compound 107],< 100
19,Cc1cc(C)c2c(n1)CN(C(=O)CC1CN(c3ccnc(-c4cc(C(F)(F)F)nn4C)c3)C1)C2 [Compound 6],< 100
20,"Cc1cc(C)c2c(n1)CN(C(=O)CC1CN(c3ccc4c(c3)C(F)C(F)C4)C1)C2 (racemic) [Compound 12, isomer 2]",< 100

row,Structure (SMILES),EC50 [nM]
1,Cc1c2c(n(C(F)F)c(=O)c1F)CN(C(=O)CC1CN(c3ccnc(C(F)(F)F)c3)C1)C2 [Compound 178],< 100
2,Cc1cc(C#N)c(F)c2c1CN(C(=O)CC1CN(c3ccnc(OC4CC(F)(F)C4)c3)C1)C2 [Compound 103],< 100
3,"Cc1cc(C)c2c(n1)CN(C(=O)CC1CN(c3ccc4c(c3)C(F)C(F)C4)C1)C2 (racemic) [Compound 12, isomer 1]",< 100
4,Cc1cc(C)c2c(n1)CN(C(=O)CC1CN(c3ccnc(-n4cc(C)c(C)n4)c3)C1)C2 [Compound 55],< 100
5,Cc1c2c(n(C(F)F)c(=O)c1F)CN(C(=O)CC1CN(c3ccnc(OC4CC4)c3)C1)C2 [Compound 195],< 100
6,Cc1cc(C)c2c(n1)CN(C(=O)CC1CN(c3cnnc(-n4ccc(C)n4)c3)C1)C2 [Compound 102],< 100
7,Cc1cc(C)c2c(n1)CN(C(=O)CC1CN(c3ccnc(NC4CC(F)(F)C4)c3)C1)C2 [Compound 67],< 100
8,Cc1cc(C)c2c(n1)CN(C(=O)CC1CN(c3ccnc(-c4ncnn4C)c3)C1)C2 [Compound 97],< 100
9,Cc1cc(CO)nc2c1CN(C(=O)CC1CN(c3ccnc(OC4CC(F)(F)C4)c3)C1)C2 [Compound 81],< 100
10,Cc1ncn(-c2cc(N3CC(CC(=O)N4Cc5nc(-c6cnn(C(F)F)c6)cc(C)c5C4)C3)ccn2)n1 [Compound 150],< 100
11,C=C1CC(Oc2cc(N3CC(CC(=O)N4Cc5nc(C)cc(C)c5C4)C3)ccn2)C1 [Compound 121],< 100
12,"Cc1cc(C2CCOC2)nc2c1CN(C(=O)CC1CN(c3ccnc(OC4CC(F)(F)C4)c3)C1)C2 (single isomer, unassigned) [Compound 155]",< 100
13,Cc1cc(C)c2c(n1)CN(C(=O)CC1CN(c3ccnc(-c4cnsc4)c3)C1)C2 [Compound 21],< 100
14,Cc1cc(C)c2c(n1)CN(C(=O)CC1CN(c3ccnc(-c4cnoc4)c3)C1)C2 [Compound 27],< 100
15,Cc1cc(C2CCOC2)nc2c1CN(C(=O)CC1CN(c3ccnc(C(F)(F)F)c3)C1)C2 (stereo not drawn) [Compound 125],< 100
16,Cc1cnn(-c2cc(N3CC(CC(=O)N4Cc5nc(C)cc(C)c5C4)C3)ccn2)c1 [Compound 40],< 100
17,Cc1ccn(-c2cc(N3CC(CC(=O)N4Cc5c(C)c(F)c(=O)n(C(F)F)c5C4)C3)ccn2)n1 [Compound 208],< 100
18,Cc1cc(-c2cnn(C)c2)nc2c1CN(C(=O)CC1CN(c3nc(C4CC4)ncc3F)C1)C2 [Compound 204],< 100
19,Cc1cc(=O)n(C(F)F)c2c1CN(C(=O)CC1CN(c3ccnc(Oc4cnn(C)c4)c3)C1)C2 [Compound 182],< 100
20,Cc1nc(-c2cnn(C)c2)nc2c1CN(C(=O)CC1CN(c3ccnc(OC4CC(F)(F)C4)c3)C1)C2 [Compound 143],< 100

row,Structure (SMILES),EC50 [nM]
1,Cc1cc(C)c2c(n1)CN(C(=O)CC1CN(c3ccnc(-c4nc(C(F)(F)F)nn4C)c3)C1)C2 [Compound 44],< 100
2,Cc1ncn(-c2cc(C)c3c(n2)CN(C(=O)CC2CN(c4ccnc(C(F)(F)F)c4)C2)C3)n1 [Compound 172],< 100
3,Cc1ccn(-c2cc(N3CC(CC(=O)N4Cc5nc(C)c6c(c5C4)CCC6)C3)ccn2)n1 [Compound 87],< 100
4,Cc1cc(C)c2c(n1)CN(C(=O)CC1CN(c3cc(-n4ccc(C)n4)ncn3)C1)C2 [Compound 48],< 100
5,Cc1cc(=O)n(C(F)F)c2c1CN(C(=O)CC1CN(c3ccnc(OC4CC(=C(F)F)C4)c3)C1)C2 (stereo not drawn) [Compound 200],< 100
6,Cc1ncn(-c2cc(N3CC(CC(=O)N4Cc5nc(-c6cnn(C)c6)nc(C)c5C4)C3)ccn2)n1 [Compound 130],< 100
7,Cc1c2c(n(C)c(=O)c1F)CN(C(=O)CC1CN(c3ccnc(OC4CCOC4)c3)C1)C2 (stereo not drawn) [Compound 210],< 100
8,Cc1cc(C)c2c(n1)CN(C(=O)CC1CN(c3ccnc(Oc4cnn(C)c4)c3)C1)C2 [Compound 53],< 100
9,Cc1cc(C)c2c(n1)CN(C(=O)CC1CN(c3ccnc(-c4cnn(C)c4)c3)C1)C2 [Compound 7],< 100
10,Cc1c2c(n(C)c(=O)c1F)CN(C(=O)CC1CN(c3ccnc(OC4CCOC4)c3)C1)C2 (stereo not drawn) [Compound 199],< 100
11,Cc1cc(C)c2c(n1)CN(C(=O)CC1CN(c3ccnc(-n4ccc(F)n4)c3)C1)C2 [Compound 76],< 100
12,Cc1cc(C)c2c(n1)CN(C(=O)CC1CN(c3ccnc(-c4ccnc(C(F)(F)F)c4)c3)C1)C2 [Compound 16],< 100
13,Cc1cc(C)c2c(n1)CN(C(=O)CC1CN(c3ccnc(-n4nc(C)cc4C)c3)C1)C2 [Compound 30],< 100
14,Cc1cc(-c2cnoc2)nc2c1CN(C(=O)CC1CN(c3ccnc(OC4CC(F)(F)C4)c3)C1)C2 [Compound 216],< 100
15,Cc1ccn(-c2cc(N3CC(CC(=O)N4Cc5nc(CO)cc(C)c5C4)C3)ccn2)n1 [Compound 84],< 100
16,Cc1cc(-c2ccn(C)n2)nc2c1CN(C(=O)CC1CN(c3ccnc(C(F)(F)F)c3)C1)C2 [Compound 112],< 100
17,Cc1cc(C)c2c(n1)CN(C(=O)CC1CN(c3ccnc(-n4cncn4)c3)C1)C2 [Compound 58],< 100
18,Cc1ccn(-c2cc(N3CC(CC(=O)N4Cc5nc(C)cc(C)c5C4)C3)ccn2)c1 [Compound 50],< 100
19,Cc1ncc(-c2nc(C)c3c(n2)CN(C(=O)CC2CN(c4ccnc(C(F)(F)F)c4)C2)C3)s1 [Compound 174],< 100
20,Cc1cc(-c2cnn(C)c2)nc2c1CN(C(=O)CC1CN(c3ccnc(OC4CCOC4)c3)C1)C2 (stereo not drawn) [Compound 169],< 100
